PubChem BioAssay (NCI)
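GI50 = concentration required for 50% inhibition of growth. TGI marks complete inhibition of growth.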

Legend:
Assay in all cases: NCI tumour cell line growth inhibition, 384-well format
UO-31 renal = tested on: UO-31 renal
MALME-3M melanoma = tested on: MALME-3M melanoma
UACC-257 melanoma = tested on: UACC-257 melanoma
MOLT-4 leukemia = tested on: MOLT-4 leukemia
OVCAR-8 ovarian = tested on: OVCAR-8 ovarian
HS 578T breast = tested on: HS 578T breast
SF-268 CNS = tested on: SF-268 CNS
SF-539 CNS = tested on: SF-539 CNS
NCI-H522 lung = tested on: NCI-H522 lung
RXF 393 renal = tested on: RXF 393 renal
DU-145 prostate = tested on: DU-145 prostate
RPMI-8226 leukemia = tested on: RPMI-8226 leukemia
T-47D breast = tested on: T-47D breast
A549 NSCLC = tested on: A549 NSCLC
SN12C renal = tested on: SN12C renal
KM12 colon = tested on: KM12 colon
A498 renal = tested on: A498 renal
IGROV1 ovarian = tested on: IGROV1 ovarian
786-0 renal = tested on: 786-0 renal
UACC-62 melanoma = tested on: UACC-62 melanoma
U251 glioblastoma = tested on: U251 glioblastoma
HOP-92 NSCLC = tested on: HOP-92 NSCLC
NCI-H23 lung = tested on: NCI-H23 lung
HCT-15 colon = tested on: HCT-15 colon
SK-MEL-28 melanoma = tested on: SK-MEL-28 melanoma
SNB-19 CNS = tested on: SNB-19 CNS
CCRF-CEM leukemia = tested on: CCRF-CEM leukemia
ACHN renal = tested on: ACHN renal
OVCAR-4 ovarian = tested on: OVCAR-4 ovarian
HCT-116 colon = tested on: HCT-116 colon
HL-60(TB) leukemia = tested on: HL-60(TB) leukemia
OVCAR-3 ovarian = tested on: OVCAR-3 ovarian
NCI/ADR-RES ovarian = tested on: NCI/ADR-RES ovarian
SNB-75 CNS = tested on: SNB-75 CNS
M14 melanoma = tested on: M14 melanoma
HOP-62 NSCLC = tested on: HOP-62 NSCLC
NCI-H226 lung = tested on: NCI-H226 lung
TK-10 renal = tested on: TK-10 renal
MDA-MB-468 breast = tested on: MDA-MB-468 breast
PC-3 prostate = tested on: PC-3 prostate
K-562 leukemia = tested on: K-562 leukemia
SK-OV-3 ovarian = tested on: SK-OV-3 ovarian
HT29 colon = tested on: HT29 colon
MCF7 breast = tested on: MCF7 breast
SW-620 colon = tested on: SW-620 colon
SK-MEL-2 melanoma = tested on: SK-MEL-2 melanoma
SF-295 CNS = tested on: SF-295 CNS
LOX IMVI melanoma = tested on: LOX IMVI melanoma
MDA-MB-231 breast = tested on: MDA-MB-231 breast
BT-549 breast = tested on: BT-549 breast
CAKI-1 renal = tested on: CAKI-1 renal
MDA-MB-435 melanoma = tested on: MDA-MB-435 melanoma
EKVX NSCLC = tested on: EKVX NSCLC
NCI-H322M lung = tested on: NCI-H322M lung
OVCAR-5 ovarian = tested on: OVCAR-5 ovarian

## O=NN(CCCl)C(=O)NC1CCCCC1
UO-31 renal
  GI50: 24.3 µM
  TGI: 63.1 µM
MALME-3M melanoma
  GI50: 18.6 µM
  TGI: 43.5 µM
UACC-257 melanoma
  GI50: 52.1 µM
MOLT-4 leukemia
  GI50: 12.4 µM
  TGI: 25 µM
OVCAR-8 ovarian
  GI50: 21.4 µM
  TGI: 49.6 µM
HS 578T breast
  GI50: 13.1 µM
  TGI: 42.5 µM
SF-268 CNS
  GI50: 29.3 µM
SF-539 CNS
  GI50: 16.4 µM
  TGI: 35.3 µM
NCI-H522 lung
  GI50: 15.4 µM
  TGI: 29 µM
RXF 393 renal
  GI50: 17.3 µM
  TGI: 36 µM
DU-145 prostate
  GI50: 51.9 µM
RPMI-8226 leukemia
  GI50: 13.7 µM
  TGI: 26.9 µM
T-47D breast
  GI50: 34.6 µM
A549 NSCLC
  GI50: 51.8 µM
SN12C renal
  GI50: 21.3 µM
  TGI: 61.2 µM
KM12 colon
  GI50: 22.2 µM
  TGI: 86.8 µM
A498 renal
  GI50: 73.1 µM
IGROV1 ovarian
  GI50: 78 µM
786-0 renal
  GI50: 20.2 µM
  TGI: 66.4 µM
UACC-62 melanoma
  GI50: 12.5 µM
  TGI: 41.6 µM
U251 glioblastoma
  GI50: 18.9 µM
HOP-92 NSCLC
  GI50: 28.9 µM
NCI-H23 lung
  GI50: 30.3 µM
HCT-15 colon
  GI50: 19.1 µM
  TGI: 41.3 µM
SK-MEL-28 melanoma
  GI50: 42.5 µM
SNB-19 CNS
  GI50: 34.9 µM
CCRF-CEM leukemia
  GI50: 19.5 µM
  TGI: 33.8 µM
ACHN renal
  GI50: 24.9 µM
  TGI: 71.4 µM
OVCAR-4 ovarian
  GI50: 20.6 µM
  TGI: 50.3 µM
HCT-116 colon
  GI50: 32.3 µM
HL-60(TB) leukemia
  GI50: 12.2 µM
  TGI: 24.8 µM
OVCAR-3 ovarian
  GI50: 27.4 µM
  TGI: 98 µM
NCI/ADR-RES ovarian
  GI50: 22.7 µM
  TGI: 54.4 µM
SNB-75 CNS
  GI50: 34.6 µM
M14 melanoma
  GI50: 21.9 µM
  TGI: 65.2 µM
HOP-62 NSCLC
  GI50: 18.9 µM
  TGI: 56.5 µM
NCI-H226 lung
  GI50: 29.9 µM
TK-10 renal
  GI50: 32.8 µM
MDA-MB-468 breast
  GI50: 13.2 µM
  TGI: 28.4 µM
PC-3 prostate
  GI50: 29 µM
K-562 leukemia
  GI50: 20.1 µM
  TGI: 42.5 µM
SK-OV-3 ovarian
  GI50: 55.1 µM
HT29 colon
  GI50: 27.1 µM
  TGI: 78 µM
MCF7 breast
  GI50: 41.1 µM
SW-620 colon
  GI50: 20.9 µM
  TGI: 69.1 µM
SK-MEL-2 melanoma
  GI50: 32.5 µM
  TGI: 78.9 µM
SF-295 CNS
  GI50: 27.2 µM
LOX IMVI melanoma
  GI50: 13.2 µM
  TGI: 38 µM
MDA-MB-231 breast
  GI50: 76.1 µM
BT-549 breast
  GI50: 21.4 µM
  TGI: 59.6 µM
CAKI-1 renal
  GI50: 22.9 µM
  TGI: 75.4 µM
MDA-MB-435 melanoma
  GI50: 26 µM
  TGI: 81.2 µM

## Nc1nc(=S)c2[nH]cnc2[nH]1
UO-31 renal
  GI50: 1.5 µM
  TGI: 11.8 µM
MALME-3M melanoma
  GI50: 0.718 µM
  TGI: 3.47 µM
UACC-257 melanoma
  GI50: 1.13 µM
  TGI: 8.82 µM
MOLT-4 leukemia
  GI50: 0.112 µM
  TGI: 0.248 µM
OVCAR-8 ovarian
  GI50: 0.362 µM
  TGI: 1.56 µM
HS 578T breast
  GI50: 1.25 µM
  TGI: 4.46 µM
SF-268 CNS
  GI50: 0.428 µM
  TGI: 2.4 µM
SF-539 CNS
  GI50: 0.686 µM
  TGI: 7.92 µM
NCI-H522 lung
  GI50: 1.03 µM
  TGI: 2.84 µM
RXF 393 renal
  GI50: 0.728 µM
  TGI: 3.51 µM
DU-145 prostate
  GI50: 0.311 µM
  TGI: 1.18 µM
RPMI-8226 leukemia
  GI50: 0.139 µM
  TGI: 0.296 µM
T-47D breast
  GI50: 0.715 µM
  TGI: 15.5 µM
A549 NSCLC
  GI50: 2.1 µM
  TGI: 7.53 µM
EKVX NSCLC
  GI50: 0.544 µM
  TGI: 12.2 µM
SN12C renal
  GI50: 1.44 µM
  TGI: 8.29 µM
KM12 colon
  GI50: 0.917 µM
  TGI: 4.9 µM
A498 renal
  GI50: 4.85 µM
  TGI: 28.7 µM
NCI-H322M lung
  GI50: 2.21 µM
  TGI: 21.2 µM
IGROV1 ovarian
  GI50: 3.51 µM
  TGI: 27.7 µM
786-0 renal
  GI50: 0.469 µM
  TGI: 12 µM
UACC-62 melanoma
  GI50: 0.366 µM
  TGI: 1.69 µM
U251 glioblastoma
  GI50: 3.4 µM
  TGI: 83.3 µM
HOP-92 NSCLC
  GI50: 0.393 µM
  TGI: 25.2 µM
OVCAR-5 ovarian
  GI50: 0.199 µM
  TGI: 0.465 µM
NCI-H23 lung
  GI50: 0.377 µM
  TGI: 1.69 µM
HCT-15 colon
  GI50: 0.988 µM
  TGI: 7.18 µM
SK-MEL-28 melanoma
  GI50: 4.57 µM
  TGI: 26.7 µM
SNB-19 CNS
  GI50: 28 µM
CCRF-CEM leukemia
  GI50: 0.212 µM
  TGI: 0.383 µM
ACHN renal
  GI50: 1.52 µM
  TGI: 5.28 µM
OVCAR-4 ovarian
  GI50: 1.05 µM
  TGI: 7.19 µM
HCT-116 colon
  GI50: 0.341 µM
  TGI: 7.39 µM
HL-60(TB) leukemia
  GI50: 0.376 µM
  TGI: 1.1 µM
OVCAR-3 ovarian
  GI50: 0.306 µM
  TGI: 1.03 µM
NCI/ADR-RES ovarian
  GI50: 0.375 µM
  TGI: 1.52 µM
SNB-75 CNS
  GI50: 0.353 µM
  TGI: 13.2 µM
M14 melanoma
  GI50: 0.379 µM
  TGI: 4.41 µM
HOP-62 NSCLC
  GI50: 0.304 µM
  TGI: 0.784 µM
NCI-H226 lung
  GI50: 0.36 µM
  TGI: 3.92 µM
TK-10 renal
  GI50: 0.251 µM
  TGI: 0.625 µM
MDA-MB-468 breast
  GI50: 0.238 µM
  TGI: 0.565 µM
PC-3 prostate
  GI50: 1.34 µM
  TGI: 14.5 µM
K-562 leukemia
  GI50: 0.366 µM
  TGI: 1.21 µM
SK-OV-3 ovarian
  GI50: 0.541 µM
  TGI: 9.85 µM
HT29 colon
  GI50: 0.906 µM
  TGI: 5.3 µM
MCF7 breast
  GI50: 0.297 µM
  TGI: 1.33 µM
SW-620 colon
  GI50: 3.02 µM
  TGI: 23.3 µM
SK-MEL-2 melanoma
  GI50: 3.32 µM
  TGI: 7.34 µM
SF-295 CNS
  GI50: 0.248 µM
  TGI: 0.735 µM
LOX IMVI melanoma
  GI50: 0.206 µM
  TGI: 0.426 µM
MDA-MB-231 breast
  GI50: 0.283 µM
  TGI: 0.918 µM
BT-549 breast
  GI50: 0.449 µM
  TGI: 2.31 µM
CAKI-1 renal
  GI50: 0.371 µM
  TGI: 2.62 µM
MDA-MB-435 melanoma
  GI50: 1.09 µM
  TGI: 4.73 µM
